Here are results for 3 compounds from US9089485B2, “Pharmaceutical compositions of entacapone, levodopa and carbidopa with improved bioavailability” (Wockhardt Ltd., priority 2008, dated 2015).

Each structure is given as a SMILES string.

The conditions of series [1]: co-micronized with sugar alcohols, from entacapone, levodopa, carbidopa formulation vs not co-micronized.
For series [2] the following is noted: background description; cited from earlier work.
The conditions of series [3]: background description; cited from earlier work. The source holds these as a separate data set.

`CCN(CC)C(=O)/C(C#N)=C/c1cc(O)c(O)c([N+](=O)[O-])c1` [Entacapone, (E)-2-cyano-3-(3,4-dihydroxy-5-nitrophenyl)-N,N-diethyl-2-propenamide]: the “Change in percent drug release of entacapone” value in series [1] was “significant increase”. For the same compound, the “Biopharmaceutics Classification system class” value in series [2] is listed as “class IV”.

As for `C[C@@](Cc1ccc(O)c(O)c1)(NN)C(=O)O` [Carbidopa, (−)-L-(α-hydrazino-(α-methyl-β-(3,4-dihydroxybenzene)propanoic acid monohydrate], the Solubility in water result in series [3] was “slightly soluble”.

On to `N[C@@H](Cc1ccc(O)c(O)c1)C(=O)O` [Levodopa, (−)-L-α-amino-β-(3,4-dihydroxybenzene) propanoic acid], for which the Solubility in water result in series [3] was “slightly soluble”.
